Experimental data: patent US8178579B2, “Dioxanes and uses thereof” (President and Fellows of Harvard College, priority 2001, dated 2012)
“Also recorded” adds a separate entry of the source.

How the values were obtained:
HT-1080 cells = assay: F-actin staining by fluorescence microscopy; assay type: cell-based; details: human fibrosarcoma cells, 20 μM, 39 h
Procedure: (§1) Detection of acetylated α-tubulin and acetylated histones by immunofluorescence was performed as described in Example 6 above. For determining microtubule stability, A549 cells were treated as indicated, fixed in glutaraldehyde, and stained for acetylated α-tubulin and total α-tubulin in antibody dilution buffer (ADB, Tris-buffered saline (TBS), 0.15 M NaCl, 0.02 M Tris-Cl, pH 7.4, with 2% bovine serum albumin and 0.1% Triton-X 100). For cold-depolymerization, cells were incubated at 4° C. or 37° C. for an additional 90 minutes before fixation. […] For co-localization experiments, biotubacin (50 μM) treated A549 cells were fixed in 3.7% formaldehyde in TBS and processed as for detecting acetylated α-tubulin (See Example 6 above) with biotubacin detected using streptavidin-TR (1:500). HDAC6 was detected using a rabbit polyclonal antibody (1:250-1:750; C.M.G., unpublished data) under the conditions used to detect acetylated α-tubulin (See Example 6 above). Filamentous actin in HT-1080 cells was detected using TR-conjugated phalloidin (1 μg/mL), and depolymerized actin using FITC-conjugated deoxyribonuclease (10 μg/mL), following fixation in 3.7% formaldehyde in TBS. p58 (1:100) in NIH-3T3 cells was detected after fixation in 3.7% formaldehyde in TBS. […]

[1] = tested on: α-tubulin acetylation in the presence of ITSA1; assay: ITSA1+AcTubulin assay: suppression of induced acetylation by ITSA1; assay type: cell-based, human; details: ITSA1 50 μM, A549 cells
Procedure: A549 cells were seeded at a density of 4,000 cells/50 μl in DMEM+ in white tissue culture-treated 384-well plates (Nalge Nunc) using a Multidrop 384 liquid dispenser (Labsystems). Library small molecules were pinned twice (100-150 nl/pin) from ˜1 mM stock solutions (DMSO) and incubated for 18 hours. For the ITSA1+AcTubulin assay, ITSA1 (50 μM) was added four hours after pin-transfer of library molecules. Media was aspirated with a 16-channel wand. […] Plates were read on an Analyst plate reader (LJL Biosystems) with an integration time of 0.1 seconds.
Bromodeoxyuridine labeling and fluorescence-activated cell sorting (FACS) were performed as described (K. M. Koeller et al., Chemistry & Biology, 10 (5) (2003) pp. 397-410). […]

α-tubulin = assay: total and tyrosinated α-tubulin levels in cells; assay type: cell-based; details: tubacin 2 μM, 4 h
Procedure: as §1

In the case of `O=C(CCCCCCC(=O)Nc1ccc([C@@H]2OC(c3ccc(CO)cc3)C[C@H](CSc3nc(-c4ccccc4)c(-c4ccccc4)o3)O2)cc1)NO` (stereo partly shown) [tubacin], the “F-actin microfilaments / actin stress fibers” value (HT-1080 cells) is reported as “increases F-actin microfilaments; also recorded: caused an increase in the abundance of actin stress fibers”, the “suppression of the induced acetylation by ITSA1” value [1] is reported as “partially suppressed by ITSA1” and the “level of total α-tubulin” value (α-tubulin) is reported as “No effect of tubacin (2 μM) treatment (4 h) on the levels of α-tubulin; also recorded: did not affect the level of total α-tubulin or the level of α-tubulin containing a carboxy-terminal tyrosine”. The “level of tyrosinated α-tubulin” value (α-tubulin) was “No effect of tubacin (2 μM) treatment (4 h) on the levels of tyrosinated tubulin; also recorded: did not affect the level of total α-tubulin or the level of α-tubulin containing a carboxy-terminal tyrosine”.
